Data reported in the NIST ThermoML archive (doi:10.1021/je060271a).
Numbers after ± are expanded uncertainties.

Conditions: 343.15 K, Liquid, Vibrating tube method

CCCCCCCC(=O)OCC(COC(=O)CCCCCCC)(COC(=O)CCCCCCC)COC(=O)CCCCCCC [pentaerythritol tetraoctanoate]
Conditions	mass density [kg/m3]
22002 kPa	941.5 ± 1.2
22028 kPa	941.4 ± 1.2
22054 kPa	941.3 ± 1.2
22085 kPa	941.4 ± 1.2
22111 kPa	941.4 ± 1.2
22142 kPa	941.5 ± 1.2
22168 kPa	941.4 ± 1.2
22195 kPa	941.6 ± 1.2
22221 kPa	941.4 ± 1.2
22248 kPa	941.5 ± 1.2
22280 kPa	941.6 ± 1.2
22307 kPa	941.6 ± 1.2
22338 kPa	941.5 ± 1.2
22365 kPa	941.8 ± 1.2
22392 kPa	941.7 ± 1.2
22424 kPa	941.7 ± 1.2
22451 kPa	941.7 ± 1.2
22478 kPa	941.5 ± 1.2
22510 kPa	941.7 ± 1.2
22537 kPa	941.7 ± 1.2
22564 kPa	941.8 ± 1.2
22599 kPa	941.9 ± 1.2
22626 kPa	941.8 ± 1.2
22654 kPa	941.9 ± 1.2
22682 kPa	941.9 ± 1.2
22709 kPa	941.7 ± 1.2
22742 kPa	941.8 ± 1.2
22770 kPa	941.8 ± 1.2
22798 kPa	941.8 ± 1.2
22831 kPa	942 ± 1.2
22858 kPa	941.8 ± 1.2
22892 kPa	941.9 ± 1.2
22920 kPa	941.9 ± 1.2
22949 kPa	942 ± 1.2
23008 kPa	942 ± 1.2
23042 kPa	941.9 ± 1.2
23070 kPa	942.1 ± 1.2
23098 kPa	942.1 ± 1.2
23132 kPa	942.1 ± 1.2
23161 kPa	942.1 ± 1.2
23190 kPa	942.1 ± 1.2
23224 kPa	942.1 ± 1.2
23253 kPa	942.1 ± 1.2
23281 kPa	942.2 ± 1.2
23316 kPa	942.2 ± 1.2
23344 kPa	942.1 ± 1.2
23374 kPa	942.3 ± 1.2
23409 kPa	942.2 ± 1.2
23438 kPa	942.4 ± 1.2
23468 kPa	942.1 ± 1.2
23497 kPa	942.3 ± 1.2
23532 kPa	942.2 ± 1.2
23562 kPa	942.4 ± 1.2
23597 kPa	942.4 ± 1.2
23627 kPa	942.3 ± 1.2
23656 kPa	942.5 ± 1.2
23686 kPa	942.4 ± 1.2
23722 kPa	942.5 ± 1.2
23753 kPa	942.5 ± 1.2
23777 kPa	942.5 ± 1.2
23819 kPa	942.5 ± 1.2
23849 kPa	942.6 ± 1.2
23886 kPa	942.6 ± 1.2
23916 kPa	942.5 ± 1.2
23946 kPa	942.5 ± 1.2
23984 kPa	942.5 ± 1.2
24014 kPa	942.6 ± 1.2
24045 kPa	942.8 ± 1.2
24076 kPa	942.6 ± 1.2
24113 kPa	942.7 ± 1.2
24144 kPa	942.6 ± 1.2
24182 kPa	942.7 ± 1.2
24245 kPa	942.8 ± 1.2
24283 kPa	942.8 ± 1.2
24314 kPa	942.8 ± 1.2
24345 kPa	942.8 ± 1.2
24377 kPa	942.9 ± 1.2
24415 kPa	942.8 ± 1.2
24447 kPa	942.9 ± 1.2
24480 kPa	942.9 ± 1.2
24518 kPa	943 ± 1.2
24550 kPa	942.9 ± 1.2
24589 kPa	943 ± 1.2
24622 kPa	943.1 ± 1.2
24655 kPa	943.1 ± 1.2
24688 kPa	943.1 ± 1.2
24721 kPa	943 ± 1.2
24761 kPa	943.1 ± 1.2
24794 kPa	943.1 ± 1.2
24828 kPa	943.1 ± 1.2
24867 kPa	943.1 ± 1.2
24894 kPa	943.3 ± 1.2
24934 kPa	943.3 ± 1.2
24961 kPa	943.1 ± 1.2
24994 kPa	943.2 ± 1.2
25028 kPa	943.2 ± 1.2
25069 kPa	943.3 ± 1.2
25097 kPa	943.2 ± 1.2
25138 kPa	943.4 ± 1.2
25185 kPa	943.5 ± 1.2
25226 kPa	943.3 ± 1.2
25260 kPa	943.3 ± 1.2
25294 kPa	943.5 ± 1.2
25335 kPa	943.5 ± 1.2
25370 kPa	943.5 ± 1.2
25404 kPa	943.5 ± 1.2
25445 kPa	943.6 ± 1.2
25480 kPa	943.5 ± 1.2
25523 kPa	943.6 ± 1.2
25553 kPa	943.7 ± 1.2
25596 kPa	943.5 ± 1.2
25632 kPa	943.8 ± 1.2
25667 kPa	943.6 ± 1.2
25703 kPa	943.7 ± 1.2
25746 kPa	943.8 ± 1.2
25781 kPa	943.7 ± 1.2
25824 kPa	943.7 ± 1.2
25860 kPa	943.7 ± 1.2
25896 kPa	943.8 ± 1.2
25933 kPa	944 ± 1.2
25977 kPa	943.9 ± 1.2
26014 kPa	943.9 ± 1.2
26054 kPa	943.9 ± 1.2
26091 kPa	943.9 ± 1.2
26135 kPa	943.9 ± 1.2
26172 kPa	944 ± 1.2
26210 kPa	944.2 ± 1.2
26247 kPa	944.1 ± 1.2
26292 kPa	944.1 ± 1.2
26329 kPa	944.1 ± 1.2
26367 kPa	944.2 ± 1.2
26412 kPa	944.1 ± 1.2
26449 kPa	944.1 ± 1.2
26495 kPa	944.1 ± 1.2
26534 kPa	944.1 ± 1.2
26573 kPa	944 ± 1.2
26612 kPa	944.2 ± 1.2
26696 kPa	944.4 ± 1.2
26735 kPa	944.4 ± 1.2
26781 kPa	944.3 ± 1.2
26820 kPa	944.4 ± 1.2
26859 kPa	944.4 ± 1.2
26906 kPa	944.4 ± 1.2
26945 kPa	944.4 ± 1.2
26985 kPa	944.4 ± 1.2
27032 kPa	944.6 ± 1.2
27072 kPa	944.4 ± 1.2
27113 kPa	944.7 ± 1.2
27160 kPa	944.5 ± 1.2
27200 kPa	944.7 ± 1.2
27241 kPa	944.7 ± 1.2
27290 kPa	944.7 ± 1.2
27331 kPa	944.6 ± 1.2
27371 kPa	944.7 ± 1.2
27412 kPa	944.8 ± 1.2
27462 kPa	944.7 ± 1.2
27503 kPa	944.8 ± 1.2
27544 kPa	944.8 ± 1.2
27594 kPa	944.9 ± 1.2
27637 kPa	944.8 ± 1.2
27680 kPa	944.9 ± 1.2
27721 kPa	944.9 ± 1.2
27772 kPa	945 ± 1.2
27815 kPa	945.1 ± 1.2
27857 kPa	945 ± 1.2
27909 kPa	945 ± 2.1
27951 kPa	945 ± 1.2
28003 kPa	945 ± 1.2
28046 kPa	945.1 ± 1.2
28089 kPa	945.1 ± 1.2
28141 kPa	945.3 ± 1.2
28185 kPa	945.2 ± 1.2
28231 kPa	945.3 ± 1.2
28277 kPa	945.4 ± 1.2
28332 kPa	945.4 ± 1.2
28378 kPa	945.4 ± 1.2
28426 kPa	945.4 ± 1.2
28478 kPa	945.5 ± 1.2
28513 kPa	945.4 ± 1.2
28545 kPa	945.5 ± 1.2
28583 kPa	945.4 ± 1.2
28615 kPa	945.4 ± 1.2
28647 kPa	945.5 ± 1.2
28680 kPa	945.5 ± 1.2
28720 kPa	945.7 ± 1.2
28753 kPa	945.6 ± 1.2
28786 kPa	945.6 ± 1.2
28818 kPa	945.8 ± 1.2
28858 kPa	945.7 ± 1.2
28890 kPa	945.7 ± 1.2
28923 kPa	945.7 ± 1.2
28963 kPa	945.7 ± 1.2
28996 kPa	945.8 ± 1.2
29036 kPa	945.8 ± 1.2
29070 kPa	945.9 ± 1.2
29104 kPa	945.8 ± 1.2
29138 kPa	945.9 ± 1.2
29179 kPa	945.9 ± 1.2
29207 kPa	945.8 ± 1.2
29247 kPa	946 ± 1.2
29281 kPa	945.9 ± 1.2
29321 kPa	945.9 ± 1.2
29355 kPa	946 ± 1.2
29389 kPa	946 ± 1.2
29424 kPa	946 ± 1.2
29465 kPa	946 ± 1.2
29500 kPa	946 ± 1.2
29534 kPa	946.1 ± 1.2
29570 kPa	946.1 ± 1.2
29612 kPa	946.1 ± 1.2
29648 kPa	946.2 ± 1.2
29685 kPa	946.2 ± 1.2
29720 kPa	946.2 ± 1.2
29754 kPa	946.3 ± 1.2
29797 kPa	946.2 ± 1.2
29832 kPa	946.2 ± 1.2
29874 kPa	946.2 ± 1.2
29910 kPa	946.3 ± 1.2
29945 kPa	946.3 ± 1.2
29987 kPa	946.4 ± 1.2
30024 kPa	946.4 ± 1.2
30060 kPa	946.5 ± 1.2
30096 kPa	946.4 ± 1.2
30139 kPa	946.4 ± 1.2
30175 kPa	946.5 ± 1.2
30212 kPa	946.4 ± 1.2
30255 kPa	946.6 ± 1.2
30291 kPa	946.5 ± 1.2
30327 kPa	946.7 ± 1.2
30371 kPa	946.5 ± 1.2
30525 kPa	946.7 ± 1.2
30562 kPa	946.8 ± 1.2
30607 kPa	946.7 ± 1.2
30646 kPa	946.7 ± 1.2
30682 kPa	946.8 ± 1.2
30727 kPa	946.8 ± 1.2
30764 kPa	946.9 ± 1.2
30802 kPa	946.8 ± 1.2
30847 kPa	946.8 ± 1.2
30885 kPa	946.9 ± 1.2
30923 kPa	947 ± 1.2
31006 kPa	946.9 ± 1.2
31045 kPa	947 ± 1.2
31091 kPa	947 ± 1.2
31130 kPa	947 ± 1.2
31169 kPa	947.2 ± 1.2
31208 kPa	947.1 ± 1.2
31255 kPa	947.1 ± 1.2
31294 kPa	947.2 ± 1.2
31341 kPa	947.1 ± 1.2
31380 kPa	947.2 ± 1.2
31411 kPa	947.1 ± 1.2
31459 kPa	947.2 ± 1.2
31506 kPa	947.2 ± 1.2
31538 kPa	947.4 ± 1.2
31586 kPa	947.3 ± 1.2
31633 kPa	947.5 ± 1.2
31674 kPa	947.4 ± 1.2
31717 kPa	947.3 ± 1.2
31758 kPa	947.5 ± 1.2
31807 kPa	947.4 ± 1.2
31848 kPa	947.5 ± 1.2
31898 kPa	947.5 ± 1.2
31942 kPa	947.5 ± 1.2
31985 kPa	947.6 ± 1.2
32036 kPa	947.6 ± 1.2
32074 kPa	947.7 ± 1.2
32104 kPa	947.6 ± 1.2
32141 kPa	947.6 ± 1.2
32172 kPa	947.8 ± 1.2
32204 kPa	947.8 ± 1.2
32242 kPa	947.7 ± 1.2
32273 kPa	947.7 ± 1.2
32305 kPa	947.9 ± 1.2
32342 kPa	947.7 ± 1.2
32374 kPa	947.9 ± 1.2
32405 kPa	947.8 ± 1.2
32443 kPa	947.8 ± 1.2
32475 kPa	947.8 ± 1.2
32507 kPa	947.8 ± 1.2
32545 kPa	947.9 ± 1.2
32577 kPa	947.9 ± 1.2
32610 kPa	948 ± 1.2
32644 kPa	948 ± 1.2
32671 kPa	948 ± 1.2
32710 kPa	948 ± 1.2
32736 kPa	948.1 ± 1.2
32762 kPa	948.1 ± 1.2
32840 kPa	948 ± 1.2
32885 kPa	948.1 ± 1.2
32925 kPa	948 ± 1.2
32958 kPa	948.2 ± 1.2
32991 kPa	948.3 ± 1.2
33030 kPa	948.3 ± 1.2
33064 kPa	948.3 ± 1.2
33099 kPa	948.3 ± 1.2
